In US9133187B2, “Serine/threonine kinase inhibitors” (ARRAY BIOPHARMA INC., priority 2011, dated 2015):

What was measured:
[1] = tested on: PMA-stimulated P90RSK(Ser380) phosphorylation in HepG2 cells; test: Cellular P90RSK(Ser380) Phosphorylation Assay; format: cell-based; conditions: Homo sapiens, 1.5 h compound incubation, PMA stimulation, pP90RSK(Ser380) normalized to GAPDH, read-out: Cell Assay IC50
Outline: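 HepG2 cells were pretreated with compound (0.5% DMSO final) for 1.5 h, then stimulated with PMA 100 ng/mL for 30 min at 37° C. Fixed, permeabilized cells were immunostained for pP90RSK(Ser380) and GAPDH. The two-channel infrared fluorescence was read, and the phospho signal was normalized to GAPDH.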

[2] = tested on: HCT116 cells; test: Cell Proliferation/Viability Assay (Cell Titer-Blue, 72 h); format: cell-based; conditions: Homo sapiens, HCT-116, 3-day (72-hour) incubation
Protocol: The cytotoxic or cytostatic activity of formula I exemplary compounds was measured by: establishing a proliferating mammalian tumor cell line in a cell culture medium, adding a formula I compound, culturing the cells for a period from about 6 h to about 5 d; and measuring cell viability (Example 78). Cell-based in vitro assays were used to measure viability, i.e. proliferation (IC50), cytotoxicity (EC50).
Viable cells after a 3-day (72-hour) incubation with ERK compounds were quantified using the Cell Titer-Blue Cell Viability Assay from Promega.
Materials and Methods: HCT116 cells were plated in 96 well micro-plates at a density of 1,000 cells/well. The cells were allowed to attach to micro-plate overnight at 37° C./5% CO2. After overnight attachment, diluted compounds were then added to the cells at a final concentration of 0.5% DMSO. After 3 days (72 hours) at 37° C./5% CO2, the number of viable cells was determined using the Cell Titer-Blue Cell Viability Assay from Promega. Briefly, Cell Titer-Blue reagent were added to the cells and incubated for 1 hour. Fluorescense (560 nmexcitation/590 nmemission) was then read using a fluorescence micro-plate reader. Background from high concentration ERK-inhibited wells was subtracted. Representative date is in TABLE III (infra).

[3] = target: human ERK-2 (Mitogen Activated Kinase 1) (Homo sapiens (Human), UniProt P28482); test: ERK-2 Enzymatic Assay; format: biochemical; conditions: 5 nM ERK-2, 25 μM ATP, Omnia peptide S/T17; read-out: ERK Inhibition IC50
Outline: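 Recombinant N-terminal 6-His human ERK-2 (aa 8-360, E. coli) with fluorescent Omnia peptide S/T17 substrate, ambient temperature, read kinetically every 50 s for ~30 min (Ex 340/Em 495 nm). Linear rates converted to percent of control; IC50 from four-parameter fit.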

Sequence of human ERK-2 (Mitogen Activated Kinase 1) (P28482 8-360): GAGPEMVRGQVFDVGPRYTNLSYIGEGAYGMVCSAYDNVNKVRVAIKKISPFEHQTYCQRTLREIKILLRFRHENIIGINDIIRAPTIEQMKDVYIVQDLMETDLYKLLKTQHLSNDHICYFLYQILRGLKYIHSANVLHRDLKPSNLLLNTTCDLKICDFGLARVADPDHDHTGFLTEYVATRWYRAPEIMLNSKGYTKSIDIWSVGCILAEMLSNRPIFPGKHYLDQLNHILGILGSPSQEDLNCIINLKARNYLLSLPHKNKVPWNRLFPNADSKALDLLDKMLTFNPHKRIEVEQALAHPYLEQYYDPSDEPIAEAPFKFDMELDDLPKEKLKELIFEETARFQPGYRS

SMILES | IC50 [1] [nM] | IC50 [2] [nM] | IC50 [3] [nM]
C[C@@H](CO)Nc1cc2c(cn1)CCN(C(=O)N[C@H](C)c1ccc(Cl)c(Cl)c1)C2 [Compound I-149, N—((R)-1-(3,4-dichlorophenyl)ethyl)-7-((S)-1-hydroxypropan-2-ylamino)-3,4-dihydro-2,6-naphthyridine-2(1H)-carboxamide] | 75.7 | 4100 | 3
CC(C)Nc1ncc2c(n1)CN(C(=O)N[C@@H](c1ccc(C(F)(F)F)c(F)c1)[C@H]1CCCN1)CC2 [Compound I-15, N—((S)-(3-fluoro-4-(trifluoromethyl)phenyl)((R)-pyrrolidin-2-yl)methyl)-2-(isopropylamino)-5,6-dihydropyrido[3,4-d]pyrimidine-7(8H)-carboxamide] | 37.3 | 625 | 1.1
C[C@@H](CO)Nc1ncc2c(n1)CN(C(=O)N[C@H](CCO)c1ccc(Cl)c(Cl)c1)CC2 [Compound I-33, N—((R)-1-(3,4-dichlorophenyl)-3-hydroxypropyl)-2-((S)-1-hydroxypropan-2-ylamino)-5,6-dihydropyrido[3,4-d]pyrimidine-7(8H)-carboxamide] | 55 | 1900 | 1.1
O=C(NCc1cc2ccccc2[nH]1)N1CCc2cnc(NC3CCOCC3)nc2C1 [Compound I-114, N-((1H-indol-2-yl)methyl)-2-(tetrahydro-2H-pyran-4-ylamino)-5,6-dihydropyrido[3,4-d]pyrimidine-7(8H)-carboxamide] | 25.4 | 1500 | 23.2
CN1C[C@@H](NC(=O)N2CCc3cnc(NC4CCOCC4)nc3C2)[C@H](c2ccc(Cl)c(F)c2)C1 [Compound I-124, N-((3S,4R)-4-(4-chloro-3-fluorophenyl)-1-methylpyrrolidin-3-yl)-2-(tetrahydro-2H-pyran-4-ylamino)-5,6-dihydropyrido[3,4-d]pyrimidine-7(8H)-carboxamide] | 5.95 | 47.5 | 2.3
O=C(N[C@@H](c1ccc(Cl)c(Cl)c1)c1cnco1)N1CCc2cnc(NC3CCOCC3)nc2C1 [Compound I-1, (S)—N-((3,4-dichlorophenyl)(oxazol-5-yl)methyl)-2-(tetrahydro-2H-pyran-4-ylamino)-5,6-dihydropyrido[3,4-d]pyrimidine-7(8H)-carboxamide] | 4.55 | 301 | 1.1
CC(C)Nc1ncc2c(n1)CN(C(=O)N[C@H](CO)c1ccc(Cl)c(Cl)c1)CC2 [Compound I-16, (S)—N-(1-(3,4-dichlorophenyl)-2-hydroxyethyl)-2-(isopropylamino)-5,6-dihydropyrido[3,4-d]pyrimidine-7(8H)-carboxamide] | 52.4 | 2100 | 1.1
CC(C)Nc1ncc2c(n1)CN(C(=O)N[C@H](CCC#N)c1ccc(Cl)c(Cl)c1)CC2 [Compound I-104, (R)—N-(3-cyano-1-(3,4-dichlorophenyl)propyl)-2-(isopropylamino)-5,6-dihydropyrido[3,4-d]pyrimidine-7(8H)-carboxamide] | 58.6 | 1600 | 2.2
CC[C@@H](NC(=O)N1CCc2cnc(NC3CCOCC3)nc2C1)c1ccc(OC(F)F)cc1 [Compound I-27, (R)—N-(1-(4-(difluoromethoxy)phenyl)propyl)-2-(tetrahydro-2H-pyran-4-ylamino)-5,6-dihydropyrido[3,4-d]pyrimidine-7(8H)-carboxamide] | 26.9 | 628 | 1.5
Cc1cccc(CCNc2ncc3c(n2)CN(C(=O)N[C@H](CO)c2ccc(F)c(Cl)c2)CC3)n1 [II-10, 2-[2-(6-Methyl-pyridin-2-yl)-ethylamino]-5,8-dihydro-6H-pyrido[3,4-d]pyrimidine-7-carboxylic acid [(S)-1-(3-chloro-4-fluoro-phenyl)-2-hydroxy-ethyl]-amide] | 20800 |  | 61
COCC[C@@H](NC(=O)N1CCc2cnc(NC3CCOCC3)nc2C1)c1ccc(Cl)c(Cl)c1 [Compound I-28, (R)—N-(1-(3,4-dichlorophenyl)-3-methoxypropyl)-2-(tetrahydro-2H-pyran-4-ylamino)-5,6-dihydropyrido[3,4-d]pyrimidine-7(8H)-carboxamide] | 32.8 | 1900 | 1.6
CC(C)Nc1ncc2c(n1)CN(C(=O)N[C@@H]1CN(C)C[C@H]1c1ccc(C(F)(F)F)c(F)c1)CC2 [Compound I-120, N-((3S,4R)-4-(3-fluoro-4-(trifluoromethyl)phenyl)-1-methylpyrrolidin-3-yl)-2-(isopropylamino)-5,6-dihydropyrido[3,4-d]pyrimidine-7(8H)-carboxamide] | 37.8 | 557 | 1.6
CNC(=O)C(NC(=O)N1CCc2cnc(NC(C)C)nc2C1)c1ccc(F)c(Cl)c1 (centres unmarked) [II-26, 2-Isopropylamino-5,8-dihydro-6H-pyrido[3,4-d]pyrimidine-7-carboxylic acid [(3-chloro-4-fluoro-phenyl)-methylcarbamoyl-methyl]-amide] | 12200 |  | 86.6
C[C@@H](CO)Nc1ncc2c(n1)CN(C(=O)NCc1cnc(C(F)(F)F)nc1)CC2 [Compound I-109, 2-((S)-2-Hydroxy-1-methyl-ethylamino)-5,8-dihydro-6H-pyrido[3,4-d]pyrimidine-7-carboxylic acid (2-trifluoromethyl-pyrimidin-5-ylmethyl)-amide] | 3300 |  | 92.7
CC(C)Nc1ncc2c(n1)CN(C(=O)N[C@@H](c1ccc(F)c(Cl)c1)[C@H](C)O)CC2 [II-40, 2-Isopropylamino-5,8-dihydro-6H-pyrido[3,4-d]pyrimidine-7-carboxylic acid [(1S,2S)-1-(3-chloro-4-fluoro-phenyl)-2-hydroxy-propyl]-amide] | 87.3 |  | 3.23
CC[C@@H](NC(=O)N1CCc2cnc(N[C@H]3CC[C@H](O)C3)nc2C1)c1ccc(C(F)(F)F)c(F)c1 [Compound I-37, N—((R)-1-(3-fluoro-4-(trifluoromethyl)phenyl)propyl)-2-((1S,3S)-3-hydroxycyclopentylamino)-5,6-dihydropyrido[3,4-d]pyrimidine-7(8H)-carboxamide] | 93 |  | 4.8
COCC[C@@H](CO)Nc1ncc2c(n1)CN(C(=O)N[C@H](C)c1ccc(Cl)c(Cl)c1)CC2 [II-399, 2-((S)-1-Hydroxymethyl-3-methoxy-propylamino)-5,8-dihydro-6H-pyrido[3,4-d]pyrimidine-7-carboxylic acid [(R)-1-(3,4-dichloro-phenyl)-ethyl]-amide] | 287 |  | 3.03
C[C@@H](NC(=O)N1CCc2cnc(N[C@H]3CC[C@H](O)C3)nc2C1)c1ccc(C(F)(F)F)c(F)c1 [Compound I-52, N—((R)-1-(3-fluoro-4-(trifluoromethyl)phenyl)ethyl)-2-((1S,3S)-3-hydroxycyclopentylamino)-5,6-dihydropyrido[3,4-d]pyrimidine-7(8H)-carboxamide] | 57 | 1400 | 2.7
CCCC(NC(=O)N1CCc2cnc(N[C@@H](C)CO)nc2C1)c1ccc(OC)c(F)c1 (some centres unmarked) [II-415, 2-(2-Hydroxy-1-methyl-ethylamino)-5,8-dihydro-6H-pyrido[3,4-d]pyrimidine-7-carboxylic acid [1-(3-fluoro-4-methoxy-phenyl)-butyl]-amide] | 39.5 |  | 2.3
